{"source": "patent US8501680B2", "about": "“Antagonists against interaction of PF4 and RANTES” (RWTH Aachen, priority 2005, dated 2013)", "key": {"[1]": {"tested_on": "Mono Mac 6 cells on IL-1 activated HUVEC; arrest potentiated by RANTES and PF4", "test": "Inhibition of monocyte arrest on activated endothelium under flow", "assay_type": "cell-based, human", "conditions": "6 μM peptide, 60 nM RANTES and PF4, 1.5 dyn/cm2, adherent cells after 4 minutes", "protocol": "Endothelial cells from the human umbilical cord (HUVEC, human umbilical vein endothelial cells, PromoCell, Heidelberg) were cultured in endothelial cell growth medium (PromoCell, Heidelberg) and used after two to four passages.\nMonocytic Mono Mac 6 cells (MM6, DSMZ) were cultured in RPMI 1640 medium (PAA Laboratories, Pasching, Austria) with the addition of 10% fetal calf serum, 2 mM L-glutamine (Biowhittaker), 1 mM sodium pyruvate, 50 μg/mL gentamycin and 9 μg/mL insulin (MM6 medium). The cells were sown with a density of 2×10^5/mL in 2 mL MM6 medium in 24-well plates and cultured at 37° C. in a humid atmosphere with 5% CO2 for 3 to 4 days before being used for experiments.\nThe interaction of monocytic Mono Mac 6 cells on activated endothelial cells was investigated.\nPetri dishes with confluent HUVEC cells layers activated with IL-113 (Interleukin 1(3, Peprotech, 10 ng/mL, 12 hours) were placed in a flow chamber. Mono Mac 6 cells (0.5×10^6 cells/mL) were resuspended in balanced Hank solution (HBSS with 10 mM HEPES (Gibco BRL), pH 7.3, 0.5% bovine serum albumin (Serva)) and kept on ice. Five minutes before the experiment, Ca^2+ and Mg^2+ were added to the monocytic MM6 cells to yield a final concentration of 1 mM and 60 nM of the chemokines RANTES (Peprotech, Rocky Hill, N.J., USA) and PF4 (ChromaTec, Greifswald), respectively, and 6 μM of the polypeptides of the sequence SEQ ID NO: 2 according to formula (2), the sequence SEQ ID NO: 3 according to formula (3) or a control peptide of the sequence SEQ ID NO: 14 according to formula (14) and then heated up to 37° C. Cells pretreated in this way were then perfused over endothelial cells at 1.5 dyn/cm^2 on a microscope of model IX 50 from Olympus. The number of monocytes that were adherent due to the interaction with the endothelial cells was determined after 4 minutes in various fields by image analysis of photographs by a video camera (3CCD, JVC) and recorder. The data were analyzed as the mean (n=5)±standard deviation (p<0.02) in comparison with a control."}, "[2]": {"target": "T1, interaction of RANTES and PF4 (Homo sapiens, UniProt P02776+P13501)", "T1 construct": "made in house; host or cells: chemical synthesis (t-Boc solid phase peptide synthesis and native chemical ligation); no expression host", "T1 sequence (P13501 24-91)": "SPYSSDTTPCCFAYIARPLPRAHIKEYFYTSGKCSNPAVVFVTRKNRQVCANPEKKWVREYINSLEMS", "T1 sequence (P02776 32-101)": "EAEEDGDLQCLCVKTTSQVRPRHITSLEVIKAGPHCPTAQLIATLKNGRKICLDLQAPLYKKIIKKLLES", "test": "Plasmon resonance (Biacore) study of inhibition of RANTES binding to immobilized biotinylated PF4", "protocol": "The plasmon resonance studies were performed using HBS-EP buffer (10 mM HEPES, 150 mM NaCl, 0.005% Tween 20, pH 7.4).\nTwo flow cells of a Cl chip (Biacore AB, Uppsala, Sweden) were activated by injection of 50 μL ethyl(dimethylaminopropyl)carbodiimide/N-hydroxysuccinimide (0.2M/0.05M, Pierce) and then 20 μL streptavidine (0.2 mg/mL, Sigma-Aldrich) was perfused over the activated surface. The surface was next inactivated by four successive injections of 20 μL […] (1M, pH 8, Sigma-Aldrich).\nBiotinylated human PF4 (bPF4) at the N-terminus was chemically synthesized by means of t-Boc-based solid phase peptide synthesis and native chemical ligation of PF4 (Dawson, P. E., Kent, S. B. (2000), Annu. Rev. Biochem. 69:923-960, Hackeng, T. M., Griffin, J. H., Dawson, P. E. (1999), Proc. Natl. Acad. Sci. USA, vol. 96, pp. 10068-10073). The bPF4 was immobilized on the dextran surface of a Cl sensor chip by injecting 200 μg/mL bPF4 into HBS-EP through one of the flow chambers and recorded 240 resonance units (RU). The second flow chamber was not treated with bPF4 and served as the reference.\nBinding of RANTES (0.5 μM, recombinant human RANTES, Peprotech, Rocky Hill, N.J., USA) or RANTES (0.5 μM) that had been preincubated with various concentrations (0 μM, 10 μM and 100 μM) of the polypeptide of the sequence SEQ ID NO: 3 according to formula (3) in HBS-EP buffer overnight at room temperature to bPF4 was determined by injection of 15 μL of the respective peptide/RANTES mixture and observation of the binding for 180 seconds. The coupling was determined and the measurements were performed in a Biacore 2000 apparatus (Biacore AB) at a flow rate of 5 μL/min. Sensor grams of the RANTES binding were corrected using the BIAevaluation 3.0 software (Biacore AB) to correct for nonspecific background signals and equilibrium resonance units (RU) were determined for each injection.\nIn another experiment under the same conditions as those described for example 1, the binding of RANTES (0.5 μM) or RANTES (0.5 μM) that had been preincubated with 0 μM, 10 μM, 50 μM and 100 μM of the polypeptide of the sequence SEQ ID NO: 3 according to formula (3), SEQ ID NO: 2 according to formula (2) or a control peptide of the sequence SEQ ID NO: 14 according to formula (14) as given below: […]"}, "[3]": {"tested_on": "atherosclerotic lesions in ApoE mice", "test": "Mouse model of atherosclerosis (ApoE mice on high-fat diet)", "assay_type": "in vivo", "conditions": "50 μg intraperitoneal three times a week for 12 weeks", "protocol": "The model for artherosclerosis [sic; atherosclerosis] was 9- to 12-week-old female ApoE litter-mate mice (The Jackson Lab, Bar Harbor, Me., USA). The mice were fed a high-fat diet (21% fat, Altromin® C1061) for 12 weeks. During this period of time, two groups of mice received intraperitoneal injections of 50 μg of the polypeptide of the sequence SEQ ID NO: 15 according to formula (15), administered three times a week, as indicated below:\n(n=7 mice) in saline solution. An untreated group of mice (n=12) was used as additional controls.\nThe mice were sacrificed for histological examination. […] Blood samples were taken at the beginning and end of the experimental nutrition period. The white blood cell count was determined by hemocytometry and the sera were collected, the cholesterol using the Infinity cholesterol kits (Thermo Electron, Melbourne, Australia).\nThe extent of the atherosclerosis was determined at the aortic route and on thoracoabdominal aorta by staining lipid deposits using Oil Red O staining (N. R. Veillard, B. Kwak, G. Pelli, F. Mulhaupt, R. W. James, A. E. Proudfoot, F. Mach, Antagonism of RANTES receptors reduces atherosclerotic plaque formation in mice. Circ. Res. 2004; 94:253-61) and quantified by means of computerized image analysis (Diskus software, Hilgers, Aachen). Areas of atherosclerotic lesions were determined in 5 μm transverse sections through the heart and aortic root. The determination was performed for each aortic root on the basis of lipid stained areas of six sections a distance of 50 μm apart. The areas of atherosclerotic lesions were divided by the total surface area of the valve of each section. The thoracoabdominal aorta was opened along the ventral midline and the areas of the lesions were stained in an en-face preparation using Oil Red-O staining. The proportional amount of lipid deposit was calculated by dividing the stained area by the total thoracoabdominal surface area."}}}
{"sequence": "CKEYFYTSGKCSNPAVVFVTRC [SEQ ID NO: 2]", "values": [{"measurement": "inhibition of potentiation of monocyte arrest due to heterophilic interaction of RANTES and PF4 (in words)", "setting": "[1]", "value": "weaker"}]}
{"sequence": "CKEYFYTSGKSSNPGIVFITRC [SEQ ID NO: 3]", "values": [{"measurement": "reduction of binding of RANTES to immobilized PF4", "setting": "[2]; RANTES 0.5 μM preincubated overnight with peptide at 100 μM, Example 1", "value": "up to 35%"}, {"measurement": "inhibition of the interaction of RANTES and PF4 (in words)", "setting": "[2]; RANTES 0.5 μM preincubated with 0, 10 and 100 μM peptide, Example 1", "value": "concentration-dependent inhibition"}, {"measurement": "inhibition of the interaction of RANTES and PF4 (comparison in words)", "setting": "[2]; RANTES 0.5 μM preincubated with 10 μM, 50 μM and 100 μM peptide, Example 2", "value": "definitely more effective than the polypeptide of the sequence SEQ ID NO: 2"}, {"measurement": "inhibition of potentiation of monocyte arrest due to heterophilic interaction of RANTES and PF4", "setting": "[1]", "value": "up to 80%"}]}
{"sequence": "CKEYFYTSSKSSNLAVVFVTRC [SEQ ID NO: 15]", "values": [{"measurement": "area of the aortic root showing plaque in relation to the total valve surface area", "setting": "[3]", "value": "significantly reduced"}, {"measurement": "macrophage content in the lesions", "setting": "[3]", "value": "significantly reduced"}, {"measurement": "development of atherosclerotic lesions in comparison with mice that received the control peptide", "setting": "[3]; Oil Red O staining", "value": "significant reduction"}]}
{"sequence": "KEYFYTSGK [SEQ ID NO: 14, control peptide, reference compound]", "values": [{"measurement": "inhibition of the interaction of RANTES and PF4 (in words)", "setting": "[2]; RANTES 0.5 μM preincubated with 100 μM peptide, Example 2", "value": "did not exhibit any detectable inhibition"}, {"measurement": "inhibition of potentiation of monocyte arrest due to heterophilic interaction of RANTES and PF4 (in words)", "setting": "[1]", "value": "no significant inhibition"}]}
